We go through 2 molecules from patent publication US20140100419A1, “ACTIVE VITAMIN D OR ANALOGS THEREOF FOR USE IN IN VIVO OR IN VITRO FERTILIZATION” (priority 2011, published 2014).

Some results are limits rather than exact numbers.

The subject of assay [1] is human spermatozoa. The assay is described as follows: Intracellular calcium [Ca2+]i in fura-2 loaded human spermatozoa. In kind it is cell-based. How it is done:
(§1) Calcium measurements and the acrosome reaction were performed on motile spermatozoa isolated after percoll density gradient centrifugation (Supra sperm gradients, (ORIGO)) following the manufacturer's instructions. Briefly, spermatozoa were separated from seminal plasma by centrifugation on a discontinuous percoll gradient using a two-step gradient comprising 2 ml layers of 55% and 80% percoll respectively. Semen was placed on the top of the gradient and centrifuged at 300×g for 25 min. The spermatozoa at the base of the 80% fraction were collected and washed with a 5 ml volume of capacitating medium (CaCl2 1.5 mM, KCl 4.3 mM, NaHCO3 31 mM, HEPES 15 mM, Human Serum Albumin 5 mg/ml, Glucose 4.5 mM, Sodium Pyruvate 0.8 mM, Synthetic Serum Replacement, 0.5 ug/ml human recombinant insulin (Sperm preparation media (ORIGO)) and finally resuspended in capacitating media and used for the following assays of calcium measurements and acrosome reaction. All men were part of the above mentioned ongoing surveillance program of semen quality among young Danish men and included after approval from the local ethical committee (No. H-4-2010-016).
Semen samples were separated by percoll density gradient centrifugation to ensure viable and motile spermatozoa and resuspended in capacitating media for 1.5 hours. Afterwards, loaded with 3 μM of the fluorescent probe (intracellular calcium binding) fura-2/AM (Invitrogen, USA) for 30 min, centrifuged (10 min at 300 g) and washed with Krebs-Ringer buffer (120 mM NaCl, 15 mM NaHCO3, 5 mM KCl, 1 mM CaCl2, 5 mM Na2HPO4, 1 mM MgCl2 pH 7.3). […] Subsequently, 80 μl of the sperm sample was diluted in 920 μl Krebs-Ringer buffer and loaded on polylysine-coated chambers to minimize movement of the spermatozoa (Lab-Tek; Nalge Nunc International, USA). A Zeiss Axiovert 135 microscope equipped with a Zeiss Achrostigmat 40×1.3 NA objective was used to acquire images from the fluorescent probe. Excitation was obtained by a Polychrome Villuminator from Till Photonics (Germany) and images were acquired using a Cool Snap CCD camera (Photometrics, USA) from Robert Scientific (Malaysia). For measurements of [Ca2+]i, the excitation wavelengths were 338 and 380 nm, measuring emission above 510 nm using a cut-off filter. […] After background subtraction, ratio images were formed using MetaFluor software.
All experiments started by using low magnification to ensure visibility of several spermatozoa simultaneously. […] All measurements of [Ca^2+], were based upon evaluation of at least three spermatozoa simultaneously (see exact number in figure legends), and were repeated in at least three separate experiments. We used 10 different semen donors to ensure that all experiments were reproduced on semen samples from at least two different men.

Assay [2] deals with human spermatozoa. The assay is described as follows: Sperm motility of washed spermatozoa with or without percoll gradient centrifugation. In kind it is cell-based. Particulars: for change in proportion of motile sperm: 24 hours at room temperature, with and without percoll, not substantially different from vehicle; for motile sperm / sperm motility (mean): 60 minutes.
Assay [3] relates to zona pellucida (ZP) of human oocytes. The assay is described as follows: Human sperm-zona pellucida interaction (sperm-egg binding) test. In kind it is cell-based.
Source text: We used the Human sperm-zona pellucida interaction test that is designed to determine the capacity of sperm to interact with the zona pellucida (ZP) of human oocytes and serves thus as a test for evaluating fertility potential of human spermatozoa. The tests provide important diagnostic information about sperm fertilising ability and we used a modified version of the test developed by Liu and Baker (Liu and Baker hum reprod 1999 Defective sperm-zona pellucida interaction: a major cause of failure of fertilization in clinical in-vitro fertilization).
If the oocyte had sperm bound to the ZP from the IVF insemination, these were removed by aspiration using a fine glass pipette with an inner diameter (120 μm) slightly smaller than the oocyte diameter. […] Oocytes with >10 sperm penetrating the ZP were not used. Also degenerate, activated or morphologically abnormal oocytes were not used for the sperm-ZP interaction test. Oocytes were pooled from several patients and used for the test on the same day or kept in the incubator and used within the next 20 days. Between 15-30 oocytes was placed in 1 ml salt solution (storage 2-4 weeks). Salt-stored human oocytes were washed with gamete buffer (COOK) with four changes in 3 hours before they were used for the sperm-egg binding test.
Semen samples from five donors were used. […] The washed sperm pellet was resuspended with sEBSS to a sperm concentration of 2×10^6/ml for the ZP-interaction test. For the assessment of the sperm concentration the samples were diluted following the manufactures instruction and subsequently determined using SP-100 (Chemometec).
For the sperm-ZP interaction tests, either high quality sperm or total sperm sample (2×10^6) in 0.5 ml of medium (+/−1 nM Calcitriol) were incubated with three oocytes for 2 h at 37° C. in 5% CO2 in air. After incubation, the oocytes were transferred to sEBSS and washed by repeated aspiration with a glass pipette (inside diameter approximately 250 μm) to dislodge sperm loosely adhering to the surface of the ZP. Sperm binding to all oocytes was assessed.
Assay [4] deals with human spermatozoa. Put plainly: Sperm motility (ABC) in semen samples exposed to 1,25(OH)2D3. In kind it is cell-based. The protocol: The participants produced a semen sample by masturbation. Self-reported information of duration of ejaculation abstinence was obtained. Trained technicians conducted semen analysis and a detailed description of assessment of semen samples has previously been published. Semen volume was estimated by weighing. For sperm motility assessment, duplicates of 10 μl of well-mixed semen were placed on a glass slide, examined on a heating stage kept at 37° C., under a microscope at ×400 magnification, and spermatozoa were classified as progressive motile (WHO class A+B), non-progressive motile (class C) or immotile (class D). The average of the two motility assessments was used. For the assessment of the sperm concentration the samples were diluted in a solution of 0.6 mol/l NaHCO3 and 0.4% (v/v) formaldehyde in distilled water, and subsequently assessed using Bürker-Türk haemocytometer. Only spermatozoa with tails were counted. Finally, smears were prepared, Papanicolaou stained and spermatozoa morphology assessed according to strict criteria (Menkveld et al., 1990).
Semen samples for the in vitro studies were obtained from 40 men from the general population, who were investigated between October 2009 and December 2010. Their semen samples were assessed as described above. […] Motility assessment was conducted in 17 samples (in duplicates) under non-capacitating conditions (in their seminal plasma), and 3 samples were also analyzed in capacitating conditions. 7 consecutively included men were used to investigate a dose-response relationship between VD and sperm motility.

In assay [5] the test system is human spermatozoa. Put plainly: Acrosome reaction (PSA-FITC staining). It is filed as cell-based. How it is done:
as §1
Acrosome status was assessed according to a modified version of the method described by Cross et al. 1986. Motile spermatozoa were isolated by percoll gradient centrifugation, washed twice with 5 ml 0.9% sodium chloride followed by centrifugation at 300×g for 10 min. […] The smear and cytospin were fixed in 96% ethanol for 5 min after air drying, washed in distilled water and stained for minimum 2 hours with Pisum sativum agglutinin labelled with fluorescein isothiocyanate (Sigma Aldrich) in Dulbecco phosphate buffered saline at 4° C. Finally, the slides were washed in distilled water and mounted with Vectrashield (H-1080 Vectar Laboratories) and 200 spermatozoa were counted on each slide using a fluorescence microscope at a magnification of 400×. The mean percentage of acrosome-reacted spermatozoa of the two slides was calculated. When more than half the head of a spermatozoon was brightly and uniformly fluorescent, the acrosome was considered to be intact. Spermatozoa without fluorescence or with a fluorescing band limited to the equatorial segment were considered to be acrosome-reacted. Spermatozoa with a fluorescing band limited to the equatorial segment were named eq-AR. The person assessing the slides was blinded to the treatment of the sample.

Another assay addresses T1, VDR-ap (Homo sapiens, UniProt P11473).
T1 sequence (P11473 1-427): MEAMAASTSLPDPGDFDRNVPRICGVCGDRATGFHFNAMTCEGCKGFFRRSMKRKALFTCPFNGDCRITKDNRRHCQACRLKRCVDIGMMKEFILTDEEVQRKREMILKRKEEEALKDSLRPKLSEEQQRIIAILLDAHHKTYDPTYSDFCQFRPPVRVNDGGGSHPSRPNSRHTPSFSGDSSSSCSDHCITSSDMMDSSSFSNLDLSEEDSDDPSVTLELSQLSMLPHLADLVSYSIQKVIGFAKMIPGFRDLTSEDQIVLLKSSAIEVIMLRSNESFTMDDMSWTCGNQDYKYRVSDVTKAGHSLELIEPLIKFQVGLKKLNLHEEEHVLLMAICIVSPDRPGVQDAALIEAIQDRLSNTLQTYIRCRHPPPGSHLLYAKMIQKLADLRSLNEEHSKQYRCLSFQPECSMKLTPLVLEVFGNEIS
Conditions: cited from earlier work.

Where [6] appears, read: 1 nM 1,25(OH)2D3 after pretreatment with nifedipine 10 μM.

`C=C1/C(=C\C=C2/CCC[C@]3(C)[C@@H]([C@H](C)CCCC(C)(C)O)CC[C@@H]23)C[C@@H](O)C[C@@H]1O` [1,25(OH)2D3, 1,25-dihydroxycholecalciferol]: the “threshold for the all-or-nothing calcium response” value in the assay on human spermatozoa [1] fell in the range of 10 to 50 µM. Moreover, the “time until calcium levels restore back to baseline” value with human spermatozoa [1] was at most 2 min. For the same molecule, the “max amplitude relative to max amplitude elicited by 10 μM progesterone” value in the assay with human spermatozoa [1] (1 nM 1,25(OH)2D3) is reported as 40-80%. Further, the “maximum amplitude of calcium increase versus baseline calcium level” value with human spermatozoa [1] (1 nM 1,25(OH)2D3) is 5-10 fold. Further, the “amplitude of calcium response versus capacitating media” value in the assay on human spermatozoa [1] (1 nM 1,25(OH)2D3, non-capacitating media, data not shown) is listed as “lower amplitude”. In the assay on human spermatozoa [1] (setting [6]), the “length of repolarisation phase” value turned out to be 4 min. In addition, the “maximum amplitude of calcium increase versus baseline” value in the assay with human spermatozoa [1] (setting [6]) turned out to be 7 fold. In addition, the “increase in intracellular calcium ([Ca2+]i) from baseline calcium level” value with human spermatozoa [1] (1,25(OH)2D3 100 μM-10 μM (so in the source), motile spermatozoa) is listed as 5-10 fold. Moreover, the calcium response entry is given as “unable to elicit a substantial calcium response” in the assay with human spermatozoa [1] (1,25(OH)2D3 added 9 min after initiation of thapsigargin 4 μM), “unable to induce a rapid increase” with human spermatozoa [1] (1,25(OH)2D3 in spermatozoa exposed to 2 μM U73122) and “marked response” with human spermatozoa [1] (calcium free media without EGTA). Further, the “time to max amplitude of the normal rapid calcium response” value with human spermatozoa [1] (1,25(OH)2D3 without inhibitor) is recorded as “within one minute”. The figures for the “duration of plateau phase of [Ca2+]i” value with human spermatozoa [1] (<10 nM 1,25(OH)2D3) and in the assay with human spermatozoa [1] (higher 1,25(OH)2D3 concentrations) were “up to 50 sec” and 50 to 300 s, respectively. Besides, the “change in Ca2+ concentration” value in the assay on human spermatozoa [1] (Example 4, 1 nM (FIG. 4)) is given as “instant increase”. Moreover, the “start of calcium increase in the neck region” value with human spermatozoa [1] (after addition of 1,25(OH)2D3) was at most 5 s. Besides, the “increase in [Ca2+]i” value in the assay on human spermatozoa [1] (calcium free media with 5 μM EGTA) is on record as “could not induce an increase”. Moreover, the “increase in [Ca2+]i after addition of 1 mM calcium” value with human spermatozoa [1] (calcium free media, calcium added after treatment) is “comparable to the increase observed in the normal calcium containing Krebs Ringer solution”. Also, the “duration of intracellular calcium increase before return to baseline” value in the assay with human spermatozoa [1] (physiological concentrations) is listed as “up to 90 seconds”. In the assay on human spermatozoa [1] (pre-treatment with 1,25(OH)2D3, then 10 μM progesterone), the “effect of pre-treatment on the calcium effect of progesterone” value is on record as “could not be abrogated”. For the same molecule, in the assay on human spermatozoa [2] (1 nM calcitriol), the “change in proportion of motile sperm” value is given as “modest decrease”. This molecule also yielded a motile sperm in the assay with human spermatozoa [2] (1 nM, isolated by percoll gradient centrifugation (from 62%)) of 65%. The “sperm motility (mean)” value with human spermatozoa [2] (1 nM, no percoll centrifugation (vehicle mean 50)) is 48. Further, the “time spermatozoa remain motile after treatment” value in the assay on human spermatozoa [2] (Example 5 + FIG. 9) is on record as “at least 24 hours”. Besides, the “mean number of spermatozoa bound to each oocyte” value in assay [3] (1 nM, 5 donors, all pretreatments (vehicle mean 52)) turned out to be 74. Further, the “mean difference in sperm bound versus vehicle” value in assay [3] (1 nM, 5 donors, all pretreatments, p=0.022) is recorded as 43%. Besides, the “average improvement of sperm-egg binding versus vehicle” value in assay [3] (1 nM, isolated with percoll gradient centrifugation, p=0.027) stood at 28%. In assay [3] (1 nM, not separated by percoll gradient centrifugation, p=0.139), the “difference in sperm-egg binding versus vehicle” value was 60%. Moreover, the “increase in sperm-egg binding” value in assay [3] (patient 3 (low semen quality), following percoll gradient centrifugation) was determined as 33%. For the same molecule, the “change in sperm-egg binding” value in assay [3] (patient 3 (low semen quality), not separated by Percoll centrifugation) is listed as “modest decline”. In addition, the “median decrease in sperm motility compared with control” value in the assay on human spermatozoa [4] (10^-5M) worked out at 15%. Also, in the assay with human spermatozoa [4] (10^-9M, p=0.006), the “median increase in sperm motility” value was 7%. In addition, the “increase in median sperm motility (ABC)” value in the assay with human spermatozoa [4] (10^-14M to 10^-9M, non-capacitating conditions) is 2-7%. Besides, the “increase in mean sperm motility” value in the assay on human spermatozoa [4] (17 men, 10^-9M for 30 min at room temperature, p=0.010) came out at 2.9%. Also, the “sperm motility compared with control” value in the assay on human spermatozoa [4] (concentrations above 10^-7M) was “decreased motility compared with control”. In addition, the “median acrosome reacted spermatozoa, VD group” value in the assay on human spermatozoa [5] (10^-9 M, capacitating conditions (control group 12%)) is 21%. The “median percentage of spermatozoa with an equatorial band (eq. AR)” value in the assay with human spermatozoa [5] (10^-9 M, capacitating conditions (from 4.7%), p=0.214) is reported as 5.3%. For the same molecule, the “average increase in number of acrosome reacted spermatozoa” value in the assay with human spermatozoa [5] (10^-9 M, capacitating conditions, p=0.024) is 6%. In addition, in the assay with human spermatozoa [5] (non-capacitating conditions (NaCl), 6 men (control 3.7%), not significant), the “acrosome reacted spermatozoa, VD treated” value came to 4.2%.
`C[C@H](CCCC(C)(C)O)[C@H]1CC[C@H]2C3=CC=C4C[C@@H](O)C[C@H](O)[C@@]4(C)[C@@H]3CC[C@]12C` [JN, 1α,25(OH)2-lumisterol]: the “affinity for VDR-ap” value at VDR-ap is on record as “same affinity as 1,25(OH)2D3”. This molecule also had a motile sperm with human spermatozoa [2] (10 nM JN, isolated by percoll gradient centrifugation (from 69%)) of 72%. Further, the “sperm motility (mean)” value in the assay on human spermatozoa [2] (10 nM JN, no percoll centrifugation (vehicle mean 34)) was determined as 46. Also, the “change in proportion of motile sperm” value with human spermatozoa [2] (10 nM JN) is “modest decrease”. Also, in assay [3] (10 nM JN, 1 donor (vehicle mean 37)), the “mean number of spermatozoa bound to each oocyte” value is listed as 65. Besides, the “difference in sperm-egg binding versus vehicle” value in assay [3] (10 nM JN, separated by percoll gradient centrifugation) was found to be 300%. Further, in assay [3] (10 nM JN, without percoll gradient centrifugation), the “average improvement of sperm-egg binding versus vehicle” value stood at 11%.
